Results reported in the NIST ThermoML archive (doi:10.1021/je900210h).
± gives the expanded uncertainty stated by the source.

Settings: Fluid (supercritical or subcritical phases), Coaxial cylinder method

FCC(F)(F)F [1,1,1,2-tetrafluoroethane]
Settings	thermal conductivity [W/m/K]
385.18 K, 4959 kPa	0.0526 ± 0.0021
385.18 K, 4978 kPa	0.0528 ± 0.0022
385.18 K, 5000 kPa	0.053 ± 0.002
385.18 K, 5022 kPa	0.053 ± 0.002
385.18 K, 5042 kPa	0.053 ± 0.002
385.18 K, 5058 kPa	0.053 ± 0.002
385.18 K, 5080 kPa	0.053 ± 0.002
385.18 K, 5100 kPa	0.053 ± 0.002
385.18 K, 5120 kPa	0.053 ± 0.002
385.18 K, 5151 kPa	0.0528 ± 0.0022
385.18 K, 5179 kPa	0.0526 ± 0.0021
385.18 K, 5224 kPa	0.0524 ± 0.0021
385.18 K, 5254 kPa	0.0522 ± 0.0021
385.19 K, 4900 kPa	0.0512 ± 0.0021
385.19 K, 4918 kPa	0.0518 ± 0.0021
385.19 K, 5296 kPa	0.0518 ± 0.0021
385.19 K, 5322 kPa	0.0518 ± 0.0021
385.19 K, 5358 kPa	0.0516 ± 0.0021
385.19 K, 5402 kPa	0.0516 ± 0.0021
385.19 K, 5454 kPa	0.0514 ± 0.0021
385.19 K, 5513 kPa	0.0512 ± 0.0021
385.2 K, 4880 kPa	0.0505 ± 0.0021
385.21 K, 4840 kPa	0.0488 ± 0.002
385.22 K, 4820 kPa	0.048 ± 0.002
385.23 K, 4800 kPa	0.0471 ± 0.002
385.25 K, 4760 kPa	0.0458 ± 0.002
385.26 K, 4730 kPa	0.0446 ± 0.0019
385.28 K, 4700 kPa	0.0431 ± 0.0019
385.29 K, 4670 kPa	0.0421 ± 0.002
385.3 K, 4640 kPa	0.0411 ± 0.0019
385.31 K, 4610 kPa	0.0401 ± 0.0018
385.33 K, 4580 kPa	0.0393 ± 0.0018
385.34 K, 4540 kPa	0.0382 ± 0.0017
385.36 K, 4500 kPa	0.0371 ± 0.0017
385.37 K, 4460 kPa	0.0363 ± 0.0017
385.39 K, 4410 kPa	0.0352 ± 0.0016
385.41 K, 4360 kPa	0.0343 ± 0.0016
385.42 K, 4310 kPa	0.0335 ± 0.0016
385.57 K, 4260 kPa	0.0328 ± 0.0015
385.59 K, 4200 kPa	0.032 ± 0.002
385.61 K, 4120 kPa	0.0311 ± 0.0015
385.72 K, 5700 kPa	0.0514 ± 0.0021
385.72 K, 5714 kPa	0.0516 ± 0.0021
385.75 K, 4060 kPa	0.0305 ± 0.0015
385.78 K, 3920 kPa	0.0293 ± 0.0014
387.19 K, 7800 kPa	0.0564 ± 0.0023
387.2 K, 7501 kPa	0.0559 ± 0.0022
387.22 K, 7002 kPa	0.0545 ± 0.0022
387.23 K, 6650 kPa	0.0536 ± 0.0022
387.25 K, 6371 kPa	0.0527 ± 0.0021
387.27 K, 9502 kPa	0.0597 ± 0.0024
387.28 K, 18006 kPa	0.0691 ± 0.0027
387.29 K, 17000 kPa	0.0682 ± 0.0026
387.3 K, 8468 kPa	0.0578 ± 0.0023
387.3 K, 16290 kPa	0.0676 ± 0.0026
387.32 K, 14910 kPa	0.0663 ± 0.0026
387.33 K, 13500 kPa	0.0648 ± 0.0025
387.33 K, 14002 kPa	0.0653 ± 0.0025
387.34 K, 13000 kPa	0.0642 ± 0.0025
387.37 K, 11008 kPa	0.0619 ± 0.0024
387.37 K, 11503 kPa	0.0625 ± 0.0025
392.65 K, 180 kPa	0.02136 ± 0.0012
394.44 K, 6457 kPa	0.0507 ± 0.0021
394.44 K, 6523 kPa	0.0509 ± 0.0021
394.44 K, 6557 kPa	0.0511 ± 0.0021
394.45 K, 6140 kPa	0.0494 ± 0.002
394.45 K, 6200 kPa	0.0496 ± 0.0021
394.45 K, 6260 kPa	0.0498 ± 0.0021
394.45 K, 6300 kPa	0.05 ± 0.002
394.45 K, 6399 kPa	0.0503 ± 0.0021
394.46 K, 5940 kPa	0.0483 ± 0.002
394.46 K, 5980 kPa	0.0487 ± 0.002
394.46 K, 6044 kPa	0.0491 ± 0.002
394.46 K, 6100 kPa	0.0492 ± 0.002
394.47 K, 5760 kPa	0.0472 ± 0.002
394.47 K, 5767 kPa	0.0472 ± 0.002
394.47 K, 5800 kPa	0.0476 ± 0.002
394.47 K, 5811 kPa	0.0476 ± 0.002
394.47 K, 5851 kPa	0.048 ± 0.002
394.47 K, 5886 kPa	0.048 ± 0.002
394.49 K, 5583 kPa	0.0453 ± 0.0019
394.49 K, 5626 kPa	0.0457 ± 0.0019
394.49 K, 5641 kPa	0.046 ± 0.002
394.5 K, 5527 kPa	0.0444 ± 0.0019
394.52 K, 5428 kPa	0.043 ± 0.002
394.53 K, 5366 kPa	0.0419 ± 0.0018
394.54 K, 5314 kPa	0.0411 ± 0.0018
394.55 K, 5300 kPa	0.0409 ± 0.0018
394.56 K, 5246 kPa	0.04 ± 0.002
394.56 K, 6908 kPa	0.0519 ± 0.0021
394.56 K, 7067 kPa	0.0523 ± 0.0021
394.57 K, 5176 kPa	0.039 ± 0.002
394.57 K, 6665 kPa	0.0513 ± 0.0021
394.57 K, 6720 kPa	0.0515 ± 0.0021
394.57 K, 6754 kPa	0.0515 ± 0.0021
394.57 K, 6800 kPa	0.0515 ± 0.0021
394.6 K, 5055 kPa	0.0374 ± 0.0017
394.68 K, 7457 kPa	0.0533 ± 0.0022
394.68 K, 7521 kPa	0.0535 ± 0.0022
394.68 K, 7635 kPa	0.0537 ± 0.0022
394.69 K, 7159 kPa	0.0526 ± 0.0021
394.69 K, 7321 kPa	0.0528 ± 0.0022
394.81 K, 7706 kPa	0.0538 ± 0.0022
394.81 K, 7827 kPa	0.0541 ± 0.0022
394.88 K, 4950 kPa	0.036 ± 0.002
394.88 K, 4978 kPa	0.0363 ± 0.0016
394.89 K, 4890 kPa	0.0353 ± 0.0016
394.91 K, 4821 kPa	0.0346 ± 0.0016
394.93 K, 4722 kPa	0.0335 ± 0.0016
394.94 K, 4649 kPa	0.0328 ± 0.0015
394.95 K, 4583 kPa	0.0322 ± 0.0015
395.23 K, 4495 kPa	0.0315 ± 0.0015
395.24 K, 4405 kPa	0.0309 ± 0.0015
403.68 K, 7203 kPa	0.0484 ± 0.002
403.69 K, 7105 kPa	0.048 ± 0.002
403.69 K, 7364 kPa	0.049 ± 0.002
403.82 K, 6973 kPa	0.0475 ± 0.002
403.83 K, 6852 kPa	0.0468 ± 0.002
404.23 K, 6723 kPa	0.046 ± 0.002
404.23 K, 6754 kPa	0.0461 ± 0.0019
404.34 K, 6434 kPa	0.044 ± 0.002
404.34 K, 6516 kPa	0.0446 ± 0.0019
404.36 K, 6559 kPa	0.0449 ± 0.0019
404.36 K, 6640 kPa	0.0453 ± 0.0019
404.38 K, 6342 kPa	0.0433 ± 0.0019
404.4 K, 6039 kPa	0.041 ± 0.002
404.4 K, 6080 kPa	0.0413 ± 0.0018
404.42 K, 5967 kPa	0.0402 ± 0.0018
404.43 K, 5860 kPa	0.0393 ± 0.0017
404.43 K, 5908 kPa	0.0396 ± 0.0017
404.44 K, 5814 kPa	0.0388 ± 0.0017
404.45 K, 5750 kPa	0.0383 ± 0.0017
404.46 K, 5668 kPa	0.0375 ± 0.0017
404.47 K, 5579 kPa	0.0368 ± 0.0017
404.48 K, 5494 kPa	0.0361 ± 0.0016
404.49 K, 5419 kPa	0.0355 ± 0.0016
404.5 K, 5330 kPa	0.0349 ± 0.0016
404.51 K, 5242 kPa	0.0342 ± 0.0016
404.65 K, 5162 kPa	0.0336 ± 0.0016
404.67 K, 5039 kPa	0.0329 ± 0.0015
404.68 K, 4909 kPa	0.0321 ± 0.0015
404.7 K, 4754 kPa	0.0312 ± 0.0015
404.71 K, 4641 kPa	0.0307 ± 0.0015
404.73 K, 4451 kPa	0.0298 ± 0.0014
404.73 K, 4467 kPa	0.0298 ± 0.0014
404.73 K, 4523 kPa	0.0301 ± 0.0014
404.76 K, 4201 kPa	0.0287 ± 0.0014
404.76 K, 4278 kPa	0.029 ± 0.002
404.77 K, 4070 kPa	0.0283 ± 0.0014
405.05 K, 3914 kPa	0.0278 ± 0.0014
405.06 K, 3790 kPa	0.0274 ± 0.0014
405.07 K, 3698 kPa	0.0271 ± 0.0014
405.25 K, 2700 kPa	0.0252 ± 0.0013
405.25 K, 2863 kPa	0.0254 ± 0.0013
405.26 K, 2524 kPa	0.0249 ± 0.0013
405.27 K, 2343 kPa	0.0247 ± 0.0013
405.34 K, 3411 kPa	0.0264 ± 0.0013
405.46 K, 8835 kPa	0.0521 ± 0.0021
405.47 K, 8558 kPa	0.0515 ± 0.0021
405.48 K, 7814 kPa	0.0499 ± 0.0021
405.49 K, 7506 kPa	0.049 ± 0.002
405.81 K, 1930 kPa	0.0243 ± 0.0013
406.09 K, 1196 kPa	0.0236 ± 0.0013
406.88 K, 18500 kPa	0.0652 ± 0.0025
406.9 K, 16345 kPa	0.063 ± 0.003
406.91 K, 15679 kPa	0.0623 ± 0.0025
406.93 K, 14350 kPa	0.0608 ± 0.0024
406.94 K, 13921 kPa	0.0603 ± 0.0024
406.96 K, 12915 kPa	0.0591 ± 0.0024
406.99 K, 11426 kPa	0.0569 ± 0.0023
407 K, 10911 kPa	0.0562 ± 0.0023
407.01 K, 10638 kPa	0.0557 ± 0.0022
426.86 K, 160 kPa	0.02469 ± 0.0013
436.44 K, 180 kPa	0.02542 ± 0.0013
446.25 K, 200 kPa	0.02665 ± 0.0014
446.25 K, 760 kPa	0.02661 ± 0.0014
451.17 K, 180 kPa	0.02683 ± 0.0014
455.69 K, 100 kPa	0.0268 ± 0.0014
455.92 K, 680 kPa	0.02719 ± 0.0014
466.31 K, 650 kPa	0.02846 ± 0.0014
476.24 K, 100 kPa	0.02922 ± 0.0014
496.18 K, 100 kPa	0.0311 ± 0.0015
515.97 K, 100 kPa	0.03304 ± 0.0015
